This is an account of results in patent publication US20230190787A1, “SYSTEM AND METHOD FOR TREATING CARDIAC TOXICITY VIA GUT MICROBIOTA” (priority 2022, published 2023).

Holding throughout (type): in vivo, Wistar albino rats
For series [1], the system named is Dox induced cardiac toxicity/remodeling. Kind of series: Blood analysis: serum biochemical levels (auto analyzer/ELISA kits) in doxorubicin induced cardiac toxicity/remodelling rats. The text has this:
Zinc Quantification, rat high sensitivity C-Reactive Protein, Fibrinogen invitro, IL-6, IL-10, Renin, Ang II, and CKMB Enzyme linked Immunosorbent Assay (ELISA) rat kits are procured from Abcam, Cambridge, United Kingdom.
Sufficient experimental animals Wistar albino rats approximately average weight of 170±20 g are obtained. The protocol is approved by Institutional Animal Ethical Committee, all animals are acclimatized for 7 days standard laboratory condition of 12-hr light/dark cycle, maintained at temperature of 22±2° C. with relative humidity of 50±5% in department of Biochemistry, Faculty of Science.
(§1) All the animals are randomly divided into 4 groups with six animals in each: 1) Normal control (NC), fed with standard semi purified diet along with normal drinking water, 2) Zam control (ZC) fed with standard semi purified diet along with Zam water p.o at libitum, 3) Doxorubicin or Dox control (DC), animals are injected with Dox (1 mg/kg bw) i.p. on first day of protocol fed with standard semi purified diet along with normal drinking water and 4) Dox+Zam (DZ) group injected with Dox (1 mg/kg bw) i.p. on first day of protocol, and treated with Zam water p.o at libitum, for 28 days. All the animals are on semi purified diet throughout the study period. Body weight of rats are recorded weekly and consumption of food and water is measured daily basis.
Physiological and behavioural changes are monitored in experimental rats for entire period of protocol. The protocol is terminated on 29th day, animals are sedated with diethyl ether for further process of organ harvesting and blood collection. Abdominal artery, punctured and blood is collected in centrifugal tubes approximately 3 ml/100 g body weight, allowed to clot at laboratory temperature for 30 minutes, centrifuged at 4° C. for 15 minutes at 4500 rpm. The supernatant serum, transferred to 1.5 ml tubes and kept at −80° C. for further analysis. Harvested heart and kidneys are weight, preserved in 10% phosphate buffered formaldehyde for histopathological analysis.
The serum biochemical levels of Zinc, Fibrinogen, Renin, IL-10,11-6, CRP, Ang II, and CKMB are analyzed by standard auto analyzer kits-Zinc quantification kit, Rat Fibrinogen ELISA kit, Rat Renin ELISA kit, IL-10 ELISA kit, I1-6 ELISA kit, CRP ELISA kit, Ang II ELISA kit, and CKMB ELISA kit from Abcam Cambridge, United Kingdom.
A general note: ELISA stands for enzyme-linked immunosorbent assay.

The next series concerns Gut microbiota. Kind of series: Gut microbiota analysis: 16S metagenomic analysis of stool DNA. To be noted: DC group: Dox 1 mg/kg i.p., normal drinking water. Here is the method: All the animals are randomly divided into 4 groups with six animals in each: 1) Normal control (NC), fed with standard semi purified diet along with normal drinking water, 2) Zam control (ZC) fed with standard semi purified diet along with Zam water p.o at libitum, 3) Doxorubicin or Dox control (DC), animals are injected with Dox (1 mg/kg bw) i.p. on first day of protocol fed with standard semi purified diet along with normal drinking water and 4) Dox+Zam (DZ) group injected with Dox (1 mg/kg bw) i.p. on first day of protocol, and treated with Zam water p.o at libitum, for 28 days. All the animals are on semi purified diet throughout the study period. Body weight of rats are recorded weekly and consumption of food and water is measured daily basis. Stool samples of rats are used to isolate the DNA by […] kit as per manufacturer's instructions. Briefly 250-300 mg of stool samples collected from lower intestine, in 2 ml tube weighted and thawed on ice. ASL buffer (1.5 ml) is added, vortexed for 3 minutes followed by incubation at 80° C. for 15 minutes. The incubated tubes are tapped every four minute and centrifuge at 14000 rpm for 15 minutes at room temperature. EX tablet is added to 1.5-2.0 ml of supernatant, followed by centrifugation for 5 minutes at 15000 rpm. The procedure continued with the addition of proteinase K (15 μl) and AL buffer, incubated for 10 minutes at 70° C. Approximately 300 μl of absolute alcohol or ethanol is added, centrifuged for 1 minute at 12000 rpm with addition of 500 μl of AW1 buffer to column above and centrifuge at 14000 rpm for 1 minute. The filtrate in collection tube is discarded, finally DNA is eluted and is evaluated on 1% agarose gel. The isolated sample of DNA is forwarded for 16S metagenomic analysis.

A further series has as its system heart. Kind of series: Histopathological analysis of heart (H&E). Particulars: DC group: Dox 1 mg/kg i.p., normal drinking water. Here is the method: as §1
(§2) Physiological and behavioural changes are monitored in experimental rats for entire period of protocol. The protocol is terminated on 29th day, animals are sedated with diethyl ether for further process of organ harvesting and blood collection. Abdominal artery, punctured and blood is collected in centrifugal tubes approximately 3 ml/100 g body weight, allowed to clot at laboratory temperature for 30 minutes, centrifuged at 4° C. for 15 minutes at 4500 rpm. The supernatant serum, transferred to 1.5 ml tubes and kept at −80° C. for further analysis. […]

The subject of the next series is kidneys. Kind of series: Histopathological analysis of kidney (H&E). To be noted: DC group: Dox 1 mg/kg i.p., normal drinking water. Here is the method:
as §1, §2

Where [2] appears, read: DC group: Dox 1 mg/kg i.p., normal drinking water.

As for `COc1cccc2c1C(=O)c1c(O)c3c(c(O)c1C2=O)C[C@@](O)(C(=O)CO)C[C@@H]3O[C@H]1C[C@H](N)[C@H](O)[C@H](C)O1` [Doxorubicin], the “Plasma CRP level” value in series [1] (DC group: Dox 1 mg/kg bw i.p. day 1, normal drinking water) is 13.40 ± 2.66 mg/dL. In addition, the “serum Zinc level” value in series [1] (DC group: Dox 1 mg/kg bw i.p. day 1, normal drinking water, day 29) worked out at 0.55 ± 0.12 µg/mL. Also, in series [1] (setting [2]), the “Ang II level” value was determined as 16.00 ± 2.26 nmol/mL/min, the CKMB level is reported as 121.8±3.12 U/L, the Fibrinogen concentration came out at 4.37±0.74 and the IL-6 turned out to be 3.36±1.32. Also, the plasma renin level in series [1] (setting [2]) was found to be 1.02 ± 0.38 ng/mL/h. For the same compound, in series [1] (DC group: Dox single dose 1 mg/kg body weight), the IL-10 was 3.73 ± 0.50 pg/mL. Moreover, in the series with Gut microbiota, the Firmicutes population was 33%, the “abundance of Bacteroidetes” value stood at 34%, the “abundance of Muribaculaceae” value was 26% and the “abundance of Proteobacteria” value was found to be 17%. In addition, the “abundance of Romboutsia” value with Gut microbiota turned out to be 2%. In addition, the “histopathological evaluation of cardiac tissue” value in the series with heart was “focal areas of myocardial cell degeneration with increased intracellular spaces, high fat deposits, inflammatory cell infiltration and disrupted tissue orientation”. The histopathology of kidneys entry in the series with kidneys was “severe pathological lesions with tubular degeneration, tubular cast and tubular necrosis with eosinophilic infiltration”.
